In data set [1] the target is T1, PAT2 (rat slc36a2) (Rattus norvegicus, UniProt Q8K415). Briefly: trans-stimulation of [3H]proline efflux from Xenopus oocytes. Format: cell-based. Set-up: wild type in pSPORT, cRNA injected into Xenopus laevis oocytes. As to conditions: 10 mM extracellular alanine, Na+-free, pH 5.5, 10 min.
The target of data set [2] is T2, ApNEAAT1 (ACYPI008971) (Acyrthosiphon pisum, UniProt A0A8R1W427).
T2 construct: cDNA in pcDNA3.1 or pCS2+, cRNA injected into Xenopus laevis oocytes; SLC36-related AAAP transporter; I161 in TM3
T2 sequence (A0A8R1W427 1-463): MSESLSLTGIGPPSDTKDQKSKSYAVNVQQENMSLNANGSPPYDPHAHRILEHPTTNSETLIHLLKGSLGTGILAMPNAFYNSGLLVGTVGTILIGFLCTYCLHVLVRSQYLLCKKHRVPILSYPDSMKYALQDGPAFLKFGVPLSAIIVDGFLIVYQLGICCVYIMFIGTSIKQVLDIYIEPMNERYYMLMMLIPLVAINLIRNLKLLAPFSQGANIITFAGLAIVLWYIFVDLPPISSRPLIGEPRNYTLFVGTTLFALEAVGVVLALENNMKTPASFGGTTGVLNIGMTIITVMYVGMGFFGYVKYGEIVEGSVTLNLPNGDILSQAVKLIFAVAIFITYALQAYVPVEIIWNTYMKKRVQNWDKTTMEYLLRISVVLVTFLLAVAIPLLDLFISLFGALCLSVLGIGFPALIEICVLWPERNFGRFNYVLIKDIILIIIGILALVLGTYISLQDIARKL
As to the kind of experiment: competition with radiolabelled proline uptake in Xenopus oocytes. Format: cell-based. The following applies: pH 5.5, Na+-free, room temperature, 10 mM competitor.

Data set [3] has as its target T1, PAT2 (rat slc36a2). The following applies: 0.1 to 1 mM proline, Na+-free, pH 5.5, -30 mV; H+ symport.
Substrate in data set [4]: O=C(O)[C@@H]1CCCN1
Briefly: cells, lysate or membranes. The following applies: pH 5.5, Na+-free, room temperature, 40 min, labelled compound.

The mark [5] stands for this setting: also direct uptake at 10 µM (Figure 4A).

Data on seven molecules can be found in article PMC6690024, “Trading amino acids at the aphid–Buchnera symbiotic interface” (Proceedings of the National Academy of Sciences of the …, 2019).

T1 sequence (Q8K415 whole entry): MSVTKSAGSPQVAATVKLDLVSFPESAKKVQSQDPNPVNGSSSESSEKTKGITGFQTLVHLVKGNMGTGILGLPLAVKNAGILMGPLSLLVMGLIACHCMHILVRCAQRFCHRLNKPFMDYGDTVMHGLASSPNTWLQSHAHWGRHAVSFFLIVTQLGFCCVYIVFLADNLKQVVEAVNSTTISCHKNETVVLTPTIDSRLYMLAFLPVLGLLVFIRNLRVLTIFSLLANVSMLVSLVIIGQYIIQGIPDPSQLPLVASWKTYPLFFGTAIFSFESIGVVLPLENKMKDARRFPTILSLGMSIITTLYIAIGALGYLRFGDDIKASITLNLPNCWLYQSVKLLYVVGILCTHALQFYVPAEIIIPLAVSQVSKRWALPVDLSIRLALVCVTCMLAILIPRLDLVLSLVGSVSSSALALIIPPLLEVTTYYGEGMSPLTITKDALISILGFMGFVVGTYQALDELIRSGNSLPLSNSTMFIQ

Turning to `C[C@H](N)C(=O)O` [Ala, alanine], the “trans-stimulation of [3H]proline efflux from Xenopus oocytes” value in data set [1] is “In PAT2-expressing oocytes, alanine trans-stimulation of [3H]proline efflux was evident”. Further, the “% control proline uptake at 10 mM” value in data set [2] (setting [5]) is “smaller dipolar L- and D-amino acids (including proline, alanine, serine, cysteine, and glycine)”.

In the case of `C[C@@H](O)[C@H](N)C(=O)O` [Thr, threonine], the “% control proline uptake at 10 mM” value in data set [2] (weak) is reported as “weaker interactions with amino acids of slightly larger side-chain (e.g., threonine)”.

Regarding `O=C(O)[C@@H]1CCCN1` [Pro, proline], the “two-electrode voltage clamp of Xenopus oocytes, proline-induced inward current” value in data set [3] is “Proline-associated inward current in PAT2-expressing but not ApNEAAT1-expressing or uninjected (control) oocytes”.

In the case of `N[C@@H](CS)C(=O)O` [Cys, cysteine], the “% control proline uptake at 10 mM” value in data set [2] (also trans-stimulates [3H]proline efflux (Figure 4D)) is listed as “Cysteine is thus demonstrated to be an ApNEAAT1 substrate by its ability to trans-stimulate”.

Regarding `N[C@@H](CO)C(=O)O` [Ser, serine], the “% control proline uptake at 10 mM” value in data set [2] (setting [5]) was “smaller dipolar L- and D-amino acids (including proline, alanine, serine, cysteine, and glycine)”.

As to `O=C(O)[C@H]1CCCN1` [D-proline], the “% control proline uptake at 10 mM” value in data set [2] was “small NEAAs (such as glycine and L- and D-proline, serine, alanine, and cysteine)”.

B1: ApNEAAT1 (ACYPI008971) (Acyrthosiphon pisum) (protein)
chain: MSESLSLTGIGPPSDTKDQKSKSYAVNVQQENMSLNANGSPPYDPHAHRILEHPTTNSETLIHLLKGSLGTGILAMPNAFYNSGLLVGTVGTILIGFLCTYCLHVLVRSQYLLCKKHRVPILSYPDSMKYALQDGPAFLKFGVPLSAIIVDGFLIVYQLGICCVYIMFIGTSIKQVLDIYIEPMNERYYMLMMLIPLVAINLIRNLKLLAPFSQGANIITFAGLAIVLWYIFVDLPPISSRPLIGEPRNYTLFVGTTLFALEAVGVVLALENNMKTPASFGGTTGVLNIGMTIITVMYVGMGFFGYVKYGEIVEGSVTLNLPNGDILSQAVKLIFAVAIFITYALQAYVPVEIIWNTYMKKRVQNWDKTTMEYLLRISVVLVTFLLAVAIPLLDLFISLFGALCLSVLGIGFPALIEICVLWPERNFGRFNYVLIKDIILIIIGILALVLGTYISLQDIARKL
For B1, in data set [4], the Michaelis-Menten constant (Km) (commonly the concentration of substrate that gives half-maximal velocity) turned out to be 179 ± 33 µM.
